Results reported in patent publication US12291514B1, “Ethyl 2-[9-(2-hydroxypyridin-3-yl)-3,6-diphenyl-1,8-dioxo-3,4,9,10-tetrahydroacridine-10-yl]-acetate as an antimicrobial compound” (KING FAISAL UNIVERSITY, priority 2023, dated 2025).

Columns and labels:
Assay type in all cases: cell-based
Conditions in all cases: after 10, 20, 40 and 60 minutes at all dilutions 1:100, 1:200, 1:400, 1:800
[1] = system: Escherichia coli; experiment: Antimicrobial screening by agar dilution, E. Coli
Procedure: (§1) The antibacterial properties of the synthesized compound, ethyl 2-[9-(2-hydroxypyridin-3-yl)-3,6-diphenyl-1,8-dioxo-3,4,9,10-tetrahydroacridine-10-yl]-acetate, were studied by the method of agar dilution. Test solutions of each compound was prepared in concentration of 1% using dimethylformamide as a solvent then they are diluted in physiological solution to obtain the final experimental dilutions 1:100, 1:200, 1:400, 1:800. The effect of these substances are compared with furacillin in a controllable study. The testing microbes used were gram positive bacteria Staphylococcus aureus, gram negative bacteria Pseudomonas aeruginosa and Escherichia coli and Candida albicans fungus. The experiments used for this survey were meat-pentonlu agar (EPA) for cultivation of bacteria and Saburo environment for the fungus. Each experiment used 1 mL of test solution on each plate […]. Two drops of emulsified with microbes feel were added. All experimental samples were taken from the agar after 10, 20, 40, 60 minutes in the environment on the basis of Patrk planted. The bacteria were cultivated at a temperature of 37° C. for 1 day and the mushroom was kept in a thermostat for 2 hours at a temperature of 28° C. Then results were checked.

[2] = system: Pseudomonas aeruginosa; experiment: Antimicrobial screening by agar dilution, Ps. aeruginosa
Procedure: as §1

[3] = system: Staphylococcus aureus; experiment: Antimicrobial screening by agar dilution, St. Aereus
Procedure: as §1

[4] = system: Candida albicans; experiment: Antimicrobial screening by agar dilution, Candida albicans
Procedure: as §1

Measured: inhibition activity (in words)

CCOC(=O)CN1C2=C(C(=O)CC(c3ccccc3)C2)C(c2cccnc2O)C2=C1CC(c1ccccc1)CC2=O (stereo not shown) [ethyl 2-[9-(2-hydroxypyridin-3-yl)-3,6-diphenyl-1,8-dioxo-3,4,9,10-tetrahydroacridine-10-yl]-acetate]
highest inhibition activity: all assays above
